{"source": "paper PMC9604868", "about": "“Evaluation of Possible Antioxidant, Anti-Hyperglycaemic, Anti-Alzheimer and Anti-Inflammatory Effects of Teucrium polium Aerial Parts (Lamiaceae)” (Life, 2022)", "key": {"[1]": {"assay": "DPPH radical scavenging assay", "conditions": "means ± SD (n = 3)", "procedure": "(§1) The antioxidant activity of T. polium L. hydroalcoholic extract was achieved using several analytical tests distinguished by their mechanism of reaction 2-diphenyl-1-picrylhydrazyl (DPPH), β-carotene and galvinoxyl radical (GOR). The reaction was initiated by mixing 0.5 mL of hydroalcoholic extract with 1 mL of DPPH (0.2 mM), β-carotene (0.5 mM) and GOR (0.1 mM) using the protocols described in references. The mixtures were left in the dark at room temperature for approximately 30 min; after that, the absorbance was measured at λmax: […], 490 and 428 nm for the mentioned tests, respectively, against a blank using a UV-vis spectrophotometer apparatus (Shimadzu UV-2450, Japan). The inhibition percentage was calculated as follows: I% = ((A0 − A1)/A0) × 100, where A0 is the absorbance of DPPH, β-carotene and GOR solutions without extracts, while A1 were the absorbance of the sample. The activity results for all tests were expressed as IC50 (half maximal inhibitory concentration) values, which have been calculated (using Microsoft Excel 2016) from an antiradical linear graph formed by the X axis, which represented extract concentration, and the Y axis, which represented their relative inhibition percentage. In addition, the antioxidant activity results were compared with three standards, BHA, BHT and vitamin, as represented in Table 1."}, "[2]": {"assay": "β-carotene assay", "conditions": "means ± SD (n = 3)", "procedure": "as §1"}, "[3]": {"test_system": "carrageenan-induced paw edema", "assay": "Carrageenan-induced hind paw edema", "conditions": "mice, gavage, extract 10% 0.5 mL or diclofenac 10 mg/kg; for % Oedema Reduction: versus control"}, "[4]": {"test_system": "rat renal medulla COX", "design": "method as in PMID 33802084", "conditions": "cited from earlier work"}}, "data": [{"smiles": "Cc1c(C)c2c(c(C)c1O)CC[C@@](C)(CCC[C@H](C)CCC[C@H](C)CCCC(C)C)O2", "note": "[Vitamin E, α-Tocopherol]", "values": [{"measurement": "DPPH IC50", "setting": "[1]", "value": "15.81 ± 0.54", "unit": "µg/mL"}]}, {"smiles": "Cc1cc(C(C)(C)C)c(O)c(C(C)(C)C)c1", "note": "[BHT, 2,6-ditert-butyl-4-methylphenol]", "values": [{"measurement": "DPPH IC50", "setting": "[1]", "value": "12.99 ± 0.41", "unit": "µg/mL"}, {"measurement": "β Carotene IC50", "setting": "[2]", "value": "0.91 ± 0.01", "unit": "µg/mL"}]}, {"smiles": "O=C(O)Cc1ccccc1Nc1c(Cl)cccc1Cl", "note": "[Diclofenac sodium]", "values": [{"measurement": "% Oedema", "setting": "[3]; 4 h after carrageenan", "value": 20.42, "unit": "%"}, {"measurement": "Average Paw Weight (g) Left", "setting": "[3]; carrageenan-injected paw, 4 h", "value": "0.171 ± 0.009", "unit": "g"}, {"measurement": "Average Paw Weight (g) Right", "setting": "[3]; uninjected paw, 4 h", "value": "0.142 ± 0.001", "unit": "g"}, {"measurement": "% Oedema Reduction", "setting": "[3]; 4 h after carrageenan", "value": 52.97, "unit": "%"}, {"measurement": "% Oedema Reduction", "setting": "[3]; 4 h after carrageenan, listed as diclofenac sodium", "value": 52.97, "unit": "%"}]}, {"smiles": "COc1ccc(O)c(C(C)(C)C)c1", "note": "[BHA, butylated hydroxyanisole]", "values": [{"measurement": "DPPH IC50", "setting": "[1]", "value": "6.14 ± 0.41", "unit": "µg/mL"}, {"measurement": "β Carotene IC50", "setting": "[2]", "value": "1.05 ± 0.03", "unit": "µg/mL"}]}, {"smiles": "O=c1cc(-c2ccc(O)c(O)c2)oc2cc(O)cc(O)c12", "note": "[Luteolin (7), luteolin]", "values": [{"measurement": "IC50", "setting": "[4]", "value": "100 to 130", "unit": "µM"}]}]}
